# Key:
# Salmonella typhimurium [1] = test: Mutagenicity against Salmonella typhimurium TA98 assessed as revertants at 1 uM incubated for 90 mins followed by drug washout measured after 2 days relative to positive control; assay type: toxicity, organism-based; details: salmonella enterica subsp. enterica serovar typhimurium
# Salmonella typhimurium [2] = test: Mutagenicity against Salmonella typhimurium TA98 assessed as revertants at 8 uM incubated for 90 mins followed by drug washout measured after 2 days relative to positive control; assay type: toxicity, organism-based; details: salmonella enterica subsp. enterica serovar typhimurium, 1.5 h
# Salmonella typhimurium [3] = test: Mutagenicity against Salmonella typhimurium TA98 assessed as revertants at 16 uM incubated for 90 mins followed by drug washout measured after 2 days relative to positive control; assay type: toxicity, organism-based; details: salmonella enterica subsp. enterica serovar typhimurium
# Salmonella typhimurium [4] = test: Mutagenicity against Salmonella typhimurium TA98 assessed as revertants at 32 uM incubated for 90 mins followed by drug washout measured after 2 days relative to positive control; assay type: toxicity, organism-based; details: salmonella enterica subsp. enterica serovar typhimurium, 1.5 h
# Salmonella typhimurium [5] = test: Mutagenicity against Salmonella typhimurium TA100 assessed as revertants at 2 uM incubated for 90 mins followed by drug washout measured after 2 days relative to positive control; assay type: toxicity, organism-based; details: salmonella enterica subsp. enterica serovar typhimurium
# Salmonella typhimurium [6] = test: Mutagenicity against Salmonella typhimurium TA100 assessed as revertants at 4 uM incubated for 90 mins followed by drug washout measured after 2 days relative to positive control; assay type: toxicity, organism-based; details: salmonella enterica subsp. enterica serovar typhimurium, 1.5 h
# Salmonella typhimurium [7] = test: Mutagenicity against Salmonella typhimurium TA100 assessed as revertants at 9 uM incubated for 90 mins followed by drug washout measured after 2 days relative to positive control; assay type: toxicity, organism-based; details: salmonella enterica subsp. enterica serovar typhimurium, 1.5 h
# Salmonella typhimurium [8] = test: Mutagenicity against Salmonella typhimurium TA100 assessed as revertants at 1 uM incubated for 90 mins followed by drug washout measured after 2 days relative to positive control; assay type: toxicity, organism-based; details: salmonella enterica subsp. enterica serovar typhimurium, 1.5 h
# Salmonella typhimurium [9] = test: Mutagenicity against Salmonella typhimurium TA100 assessed as revertants at 16 uM incubated for 90 mins followed by drug washout measured after 2 days relative to positive control; assay type: toxicity, organism-based; details: salmonella enterica subsp. enterica serovar typhimurium
# Salmonella typhimurium [10] = test: Mutagenicity against Salmonella typhimurium TA100 assessed as revertants at 32 uM incubated for 90 mins followed by drug washout measured after 2 days relative to positive control; assay type: toxicity, organism-based; details: salmonella enterica subsp. enterica serovar typhimurium
# Plasmodium falciparum [11] = test: Resistance ratio of IC50 for chloroquine-resistant Plasmodium falciparum W2 to IC50 for chloroquine-sensitive Plasmodium falciparum D10; assay type: functional
# Plasmodium falciparum [12] = test: Resistance ratio of IC50 for chloroquine-resistant Plasmodium falciparum K1 to IC50 for chloroquine-sensitive Plasmodium falciparum NF54; assay type: functional
# [13] = biological target: T1, Chloroquine resistance transporter (Plasmodium falciparum) (UniProt Q9N623); test: Inhibition of chloroquine-resistant Plasmodium falciparum Dd2 CRT expressed in Xenopus laevis oocyte assessed as inhibition of [3H]chloroquine uptake at 100 uM measured from 1 to 2 hrs
# T1 sequence (whole entry): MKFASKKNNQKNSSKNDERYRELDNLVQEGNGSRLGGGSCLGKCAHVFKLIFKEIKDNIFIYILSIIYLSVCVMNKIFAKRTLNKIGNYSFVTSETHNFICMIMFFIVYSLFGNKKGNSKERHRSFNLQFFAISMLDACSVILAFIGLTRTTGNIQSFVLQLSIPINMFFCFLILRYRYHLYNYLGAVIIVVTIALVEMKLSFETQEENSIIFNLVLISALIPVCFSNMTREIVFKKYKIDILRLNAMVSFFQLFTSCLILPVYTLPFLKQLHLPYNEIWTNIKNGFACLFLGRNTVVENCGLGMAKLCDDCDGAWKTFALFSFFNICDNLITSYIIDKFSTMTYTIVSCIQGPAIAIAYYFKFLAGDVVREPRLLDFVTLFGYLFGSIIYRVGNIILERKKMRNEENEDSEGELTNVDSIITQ
# [14] = Cytotoxicity against mouse NIH3T3 cells after 24 hrs by neutral red dye uptake assay; assay type: cell-based; details: read-out: TC50
# [15] = Cytotoxicity against human HepG2 cells after 24 hrs by neutral red dye uptake assay; assay type: cell-based; details: read-out: TC50
# Salmonella typhimurium [16] = test: Mutagenicity against Salmonella typhimurium TA98 assessed as revertants at 2 uM incubated for 90 mins followed by drug washout measured after 2 days relative to positive control; assay type: toxicity, organism-based; details: salmonella enterica subsp. enterica serovar typhimurium, 1.5 h
# Salmonella typhimurium [17] = test: Mutagenicity against Salmonella typhimurium TA98 assessed as revertants at 4 uM incubated for 90 mins followed by drug washout measured after 2 days relative to positive control; assay type: toxicity, organism-based; details: salmonella enterica subsp. enterica serovar typhimurium
# Salmonella typhimurium [18] = test: Mutagenicity against Salmonella typhimurium TA98 assessed as revertants at 3 uM incubated for 90 mins followed by drug washout measured after 2 days relative to positive control; assay type: toxicity, organism-based; details: salmonella enterica subsp. enterica serovar typhimurium, 1.5 h
# Salmonella typhimurium [19] = test: Mutagenicity against Salmonella typhimurium TA98 assessed as revertants at 6 uM incubated for 90 mins followed by drug washout measured after 2 days relative to positive control; assay type: toxicity, organism-based; details: salmonella enterica subsp. enterica serovar typhimurium, 1.5 h
# Salmonella typhimurium [20] = test: Mutagenicity against Salmonella typhimurium TA98 assessed as revertants at 13 uM incubated for 90 mins followed by drug washout measured after 2 days relative to positive control; assay type: toxicity, organism-based; details: salmonella enterica subsp. enterica serovar typhimurium, 1.5 h
# Salmonella typhimurium [21] = test: Mutagenicity against Salmonella typhimurium TA98 assessed as revertants at 25 uM incubated for 90 mins followed by drug washout measured after 2 days relative to positive control; assay type: toxicity, organism-based; details: salmonella enterica subsp. enterica serovar typhimurium
# Salmonella typhimurium [22] = test: Mutagenicity against Salmonella typhimurium TA98 assessed as revertants at 50 uM incubated for 90 mins followed by drug washout measured after 2 days relative to positive control; assay type: toxicity, organism-based; details: salmonella enterica subsp. enterica serovar typhimurium, 1.5 h
# Salmonella typhimurium [23] = test: Mutagenicity against Salmonella typhimurium TA100 assessed as revertants at 1.5 uM incubated for 90 mins followed by drug washout measured after 2 days relative to positive control; assay type: toxicity, organism-based; details: salmonella enterica subsp. enterica serovar typhimurium, 1.5 h
# Salmonella typhimurium [24] = test: Mutagenicity against Salmonella typhimurium TA100 assessed as revertants at 3 uM incubated for 90 mins followed by drug washout measured after 2 days relative to positive control; assay type: toxicity, organism-based; details: salmonella enterica subsp. enterica serovar typhimurium, 1.5 h
# Salmonella typhimurium [25] = test: Mutagenicity against Salmonella typhimurium TA100 assessed as revertants at 6 uM incubated for 90 mins followed by drug washout measured after 2 days relative to positive control; assay type: toxicity, organism-based; details: salmonella enterica subsp. enterica serovar typhimurium, 1.5 h
# Salmonella typhimurium [26] = test: Mutagenicity against Salmonella typhimurium TA100 assessed as revertants at 13 uM incubated for 90 mins followed by drug washout measured after 2 days relative to positive control; assay type: toxicity, organism-based; details: salmonella enterica subsp. enterica serovar typhimurium
# Salmonella typhimurium [27] = test: Mutagenicity against Salmonella typhimurium TA100 assessed as revertants at 25 uM incubated for 90 mins followed by drug washout measured after 2 days relative to positive control; assay type: toxicity, organism-based; details: salmonella enterica subsp. enterica serovar typhimurium
# Salmonella typhimurium [28] = test: Mutagenicity against Salmonella typhimurium TA100 assessed as revertants at 50 uM incubated for 90 mins followed by drug washout measured after 2 days relative to positive control; assay type: toxicity, organism-based; details: salmonella enterica subsp. enterica serovar typhimurium
# Plasmodium falciparum [29] = test: Antiplasmodial activity against chloroquine-sensitive Plasmodium falciparum D10 infected in human RBC after 72 hrs by parasite lactate dehydrogenase assay; assay type: functional, organism-based; details: D10, 72 h
# Plasmodium falciparum [30] = test: Antiplasmodial activity against chloroquine-resistant Plasmodium falciparum W2 infected in human RBC after 72 hrs by parasite lactate dehydrogenase assay; assay type: functional, organism-based; details: W2, 72 h
# Plasmodium falciparum [31] = test: Antiplasmodial activity against chloroquine-sensitive Plasmodium falciparum NF54 infected in human erythrocytes assessed as inhibition of [3H]hypoxanthine incorporation incubated for 48 hrs prior to [3H]hypoxanthine addition measured after 48 hrs by liquid scintillation counting; assay type: functional, organism-based
# Plasmodium falciparum [32] = test: Antiplasmodial activity against chloroquine-resistant Plasmodium falciparum K1 infected in human erythrocytes assessed as inhibition of [3H]hypoxanthine incorporation incubated for 48 hrs prior to [3H]hypoxanthine addition measured after 48 hrs by liquid scintillation counting; assay type: functional, organism-based
# Salmonella typhimurium [33] = test: Mutagenicity against Salmonella typhimurium TA98 assessed as revertants at 1.5 uM incubated for 90 mins followed by drug washout measured after 2 days relative to positive control; assay type: toxicity, organism-based; details: salmonella enterica subsp. enterica serovar typhimurium, 1.5 h
smiles,measurement,setting,value
Clc1cccc(C(Nc2ccnc3cc(Cl)ccc23)c2ccc(CN3CCCC3)cc2)c1 (racemic),Activity,Salmonella typhimurium [1],2%
same,Activity,Salmonella typhimurium [2],6%
same,Activity,Salmonella typhimurium [3],14%
same,Activity,Salmonella typhimurium [4],2%
same,Activity,Salmonella typhimurium [5],2%
same,Activity,Salmonella typhimurium [6],0%
same,Activity,Salmonella typhimurium [7],5%
same,Activity,Salmonella typhimurium [8],5%
same,Activity,Salmonella typhimurium [9],10%
same,Activity,Salmonella typhimurium [10],2%
same,Ratio IC50,Plasmodium falciparum [11],1
same,Ratio IC50,Plasmodium falciparum [12],1.3
same,inhibition,[13],70%
same,CC50 at 24 h,[14],9 µM
same,CC50 at 24 h,[15],31 µM
same,Activity,Salmonella typhimurium [16],2%
same,Activity,Salmonella typhimurium [17],0%
Fc1cc(C(Nc2ccnc3cc(Cl)ccc23)c2ccc(Cl)cc2)ccc1CN1CCCC1 (racemic),Activity,Salmonella typhimurium [18],5%
same,Activity,Salmonella typhimurium [19],3%
same,Activity,Salmonella typhimurium [20],3%
same,Activity,Salmonella typhimurium [21],11%
same,Activity,Salmonella typhimurium [22],8%
same,Activity,Salmonella typhimurium [23],12%
same,Activity,Salmonella typhimurium [24],10%
same,Activity,Salmonella typhimurium [25],10%
same,Activity,Salmonella typhimurium [26],11%
same,Activity,Salmonella typhimurium [27],11%
same,Activity,Salmonella typhimurium [28],11%
same,IC50,Plasmodium falciparum [29],0.059 µM
same,IC50,Plasmodium falciparum [30],0.045 µM
same,IC50,Plasmodium falciparum [31],0.013 µM
same,IC50,Plasmodium falciparum [32],0.02 µM
same,inhibition,[13],70%
same,CC50 at 24 h,[14],25 µM
same,CC50 at 24 h,[15],12 µM
same,Activity,Salmonella typhimurium [33],4%

# Reference: ChEMBL document CHEMBL2169878 (J Med Chem, 2012)
